Measurements from ChEMBL document CHEMBL5665443, “Enzyme Inhibitor Single Concentration assay results for EUbOPEN Chemogenomics Library” (2024).
Where a SMILES comes first, the peptide text is derived from it.

How the values were obtained:
[1] = molecular target: Methyl-CpG-binding domain protein 4 (Homo sapiens) (UniProt O95243); conditions: Compound Concentration 10.0 uM, Hit No;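 further: MBD4 activity read as fluorescence at 594 nm from cleavage and release of a quenched duplex DNA oligonucleotide, with APE1 coupled to incise the strand and raise turnover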
Methyl-CpG-binding domain protein 4 (Homo sapiens), sequence (O95243 whole entry, the tested form may be a part): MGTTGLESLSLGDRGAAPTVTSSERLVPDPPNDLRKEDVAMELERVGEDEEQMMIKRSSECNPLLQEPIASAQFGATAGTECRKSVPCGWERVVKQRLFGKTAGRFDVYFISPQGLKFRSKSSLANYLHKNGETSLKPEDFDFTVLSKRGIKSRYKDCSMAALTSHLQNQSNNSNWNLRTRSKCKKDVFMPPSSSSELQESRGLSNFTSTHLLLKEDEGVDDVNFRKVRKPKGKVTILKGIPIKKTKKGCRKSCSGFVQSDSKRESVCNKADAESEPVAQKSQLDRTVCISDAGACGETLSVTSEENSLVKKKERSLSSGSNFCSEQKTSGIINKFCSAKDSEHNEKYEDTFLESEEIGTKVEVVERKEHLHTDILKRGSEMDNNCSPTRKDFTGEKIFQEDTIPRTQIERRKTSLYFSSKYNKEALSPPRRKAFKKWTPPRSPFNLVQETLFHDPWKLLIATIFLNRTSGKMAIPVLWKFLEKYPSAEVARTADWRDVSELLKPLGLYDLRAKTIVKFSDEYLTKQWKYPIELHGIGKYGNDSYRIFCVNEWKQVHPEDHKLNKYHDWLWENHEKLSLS

[2] = molecular target: DNA-3-methyladenine glycosylase (Homo sapiens) (UniProt P29372); conditions: Compound Concentration 10.0 uM, Hit No;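 further: enzyme assay where MPG cuts a quenched duplex DNA oligonucleotide probe, paired with APE1 for strand incision and turnover, read as fluorescence at 594 nm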
DNA-3-methyladenine glycosylase (Homo sapiens), sequence (P29372 whole entry): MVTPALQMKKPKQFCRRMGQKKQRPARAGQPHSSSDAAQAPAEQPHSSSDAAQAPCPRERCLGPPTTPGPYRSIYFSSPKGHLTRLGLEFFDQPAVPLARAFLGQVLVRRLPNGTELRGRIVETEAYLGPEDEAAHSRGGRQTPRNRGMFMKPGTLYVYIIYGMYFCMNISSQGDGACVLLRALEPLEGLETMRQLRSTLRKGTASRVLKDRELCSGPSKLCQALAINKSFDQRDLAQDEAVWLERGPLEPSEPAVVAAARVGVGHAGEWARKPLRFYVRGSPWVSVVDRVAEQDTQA

[3] = molecular target: T1, Adenine DNA glycosylase (Homo sapiens) (UniProt Q9UIF7); conditions: Compound Concentration 10.0 uM, Hit No;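 further: human MUTYH activity read as 594 nm fluorescence from cleavage and release of a quenched DNA duplex, coupled with APE1 for strand incision, lower signal meaning inhibition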
T1 sequence (whole entry): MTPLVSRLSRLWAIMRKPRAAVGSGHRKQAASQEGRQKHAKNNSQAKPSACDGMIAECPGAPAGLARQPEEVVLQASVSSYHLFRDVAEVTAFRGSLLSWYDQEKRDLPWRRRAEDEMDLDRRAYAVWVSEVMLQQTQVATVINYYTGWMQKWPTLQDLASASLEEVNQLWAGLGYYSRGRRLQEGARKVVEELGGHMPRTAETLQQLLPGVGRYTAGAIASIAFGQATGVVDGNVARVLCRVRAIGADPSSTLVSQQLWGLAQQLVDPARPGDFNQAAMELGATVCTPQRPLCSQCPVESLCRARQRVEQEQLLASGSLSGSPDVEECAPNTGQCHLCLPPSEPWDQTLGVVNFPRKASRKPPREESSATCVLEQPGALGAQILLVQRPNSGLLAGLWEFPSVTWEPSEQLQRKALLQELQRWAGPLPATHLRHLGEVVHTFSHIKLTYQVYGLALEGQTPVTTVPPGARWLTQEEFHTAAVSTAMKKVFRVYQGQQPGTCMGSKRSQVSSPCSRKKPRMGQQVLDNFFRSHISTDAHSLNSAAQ

[4] = molecular target: Endonuclease 8-like 1 (Homo sapiens) (UniProt Q96FI4); conditions: Compound Concentration 10.0 uM, Hit No;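 further: fluorescence at 594 nm from quenched duplex DNA oligonucleotides released by NEIL1 cleavage and strand separation, reported as reduction of this enzyme activity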
Endonuclease 8-like 1 (Homo sapiens), sequence (Q96FI4 whole entry): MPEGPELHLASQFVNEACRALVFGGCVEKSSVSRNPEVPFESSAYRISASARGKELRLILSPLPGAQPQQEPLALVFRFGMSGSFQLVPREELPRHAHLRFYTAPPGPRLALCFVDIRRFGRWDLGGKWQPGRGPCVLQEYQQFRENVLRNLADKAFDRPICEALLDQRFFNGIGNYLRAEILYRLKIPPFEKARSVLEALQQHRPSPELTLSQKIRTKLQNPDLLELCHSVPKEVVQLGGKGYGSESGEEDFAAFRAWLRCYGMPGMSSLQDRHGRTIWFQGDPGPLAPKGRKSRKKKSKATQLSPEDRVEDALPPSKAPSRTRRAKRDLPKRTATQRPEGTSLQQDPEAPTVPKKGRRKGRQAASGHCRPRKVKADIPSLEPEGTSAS

[5] = molecular target: T2, Endonuclease 8-like 2 (Homo sapiens) (UniProt Q969S2); conditions: Compound Concentration 10.0 uM;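 further: fluorescence at 594 nm reports NEIL2 cutting and release of a quenched double-stranded DNA oligo substrate, reduced signal read as inhibition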
T2 sequence (whole entry): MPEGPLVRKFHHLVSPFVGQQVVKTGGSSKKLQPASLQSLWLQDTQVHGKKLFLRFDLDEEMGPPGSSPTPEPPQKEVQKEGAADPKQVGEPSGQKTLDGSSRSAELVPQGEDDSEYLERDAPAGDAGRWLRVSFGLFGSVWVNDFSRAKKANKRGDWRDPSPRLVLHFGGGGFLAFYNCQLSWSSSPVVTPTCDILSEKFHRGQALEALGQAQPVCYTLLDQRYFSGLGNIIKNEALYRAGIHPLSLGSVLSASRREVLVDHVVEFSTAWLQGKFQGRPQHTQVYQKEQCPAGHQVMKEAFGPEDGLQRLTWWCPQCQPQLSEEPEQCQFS

[6] = molecular target: T3, Endonuclease III-like protein 1 (Homo sapiens) (UniProt P78549); conditions: Compound Concentration 10.0 uM, Hit No;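 further: enzyme assay tracking NTHL1 cutting and release of a quenched double-stranded DNA oligo substrate, read as fluorescence at 594 nm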
T3 sequence (whole entry): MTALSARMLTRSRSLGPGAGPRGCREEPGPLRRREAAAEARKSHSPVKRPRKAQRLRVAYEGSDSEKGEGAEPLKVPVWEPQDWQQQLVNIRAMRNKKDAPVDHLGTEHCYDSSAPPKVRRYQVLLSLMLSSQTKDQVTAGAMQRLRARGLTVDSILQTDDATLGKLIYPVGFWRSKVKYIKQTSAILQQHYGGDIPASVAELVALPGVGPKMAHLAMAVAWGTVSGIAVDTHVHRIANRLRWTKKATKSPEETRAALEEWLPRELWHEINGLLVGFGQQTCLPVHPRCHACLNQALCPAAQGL

[7] = molecular target: N-glycosylase/DNA lyase (Homo sapiens) (UniProt O15527); conditions: Compound Concentration 10.0 uM;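 further: OGG1 cleavage of a quenched duplex DNA oligonucleotide, coupled to APE1 for strand incision, read as fluorescence at 594 nm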
N-glycosylase/DNA lyase (Homo sapiens), sequence (O15527 whole entry): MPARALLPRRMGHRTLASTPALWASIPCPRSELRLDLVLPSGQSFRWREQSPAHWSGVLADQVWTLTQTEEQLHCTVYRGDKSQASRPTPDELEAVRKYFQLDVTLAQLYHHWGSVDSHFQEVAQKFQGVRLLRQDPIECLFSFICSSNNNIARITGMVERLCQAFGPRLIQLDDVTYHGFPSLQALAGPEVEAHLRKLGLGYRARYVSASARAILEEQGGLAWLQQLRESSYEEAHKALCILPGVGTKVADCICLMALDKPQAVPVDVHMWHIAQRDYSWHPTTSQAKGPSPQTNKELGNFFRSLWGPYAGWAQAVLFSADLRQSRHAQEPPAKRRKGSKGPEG

[8] = molecular target: T4, Single-strand selective monofunctional uracil DNA glycosylase (Homo sapiens) (UniProt Q53HV7); conditions: Compound Concentration 10.0 uM, Hit No;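 further: enzymatic SMUG1 assay coupled with APE1, reading fluorescence at 594 nm released when a quenched double-stranded DNA oligonucleotide substrate is cleaved and separated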
T4 sequence (whole entry): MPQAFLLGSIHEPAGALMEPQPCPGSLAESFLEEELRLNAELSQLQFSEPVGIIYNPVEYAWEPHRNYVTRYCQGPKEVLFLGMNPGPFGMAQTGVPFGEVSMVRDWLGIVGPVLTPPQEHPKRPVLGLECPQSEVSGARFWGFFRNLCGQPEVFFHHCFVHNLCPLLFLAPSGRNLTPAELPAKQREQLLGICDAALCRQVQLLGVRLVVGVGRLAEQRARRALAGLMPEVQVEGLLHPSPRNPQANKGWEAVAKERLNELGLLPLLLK

[9] = molecular target: G/T mismatch-specific thymine DNA glycosylase (Homo sapiens) (UniProt Q13569); conditions: Compound Concentration 10.0 uM, Hit No;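 further: human TDG cleavage of quenched duplex DNA oligonucleotides coupled to APE1, strand release read as fluorescence at 594 nm, inhibition of TDG activity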
G/T mismatch-specific thymine DNA glycosylase (Homo sapiens), sequence (Q13569 whole entry): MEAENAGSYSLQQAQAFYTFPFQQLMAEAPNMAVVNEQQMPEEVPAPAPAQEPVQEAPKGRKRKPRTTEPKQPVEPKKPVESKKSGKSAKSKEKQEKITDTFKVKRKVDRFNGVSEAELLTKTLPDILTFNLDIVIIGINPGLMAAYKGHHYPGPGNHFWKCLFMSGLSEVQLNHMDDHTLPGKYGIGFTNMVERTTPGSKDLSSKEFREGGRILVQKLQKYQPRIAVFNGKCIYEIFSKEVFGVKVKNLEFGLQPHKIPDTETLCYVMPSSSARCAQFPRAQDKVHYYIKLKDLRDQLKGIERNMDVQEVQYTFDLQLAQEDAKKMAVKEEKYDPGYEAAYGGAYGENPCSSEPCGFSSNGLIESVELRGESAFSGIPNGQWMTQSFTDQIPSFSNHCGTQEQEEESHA

[10] = molecular target: Uracil-DNA glycosylase (Homo sapiens) (UniProt P13051); conditions: Compound Concentration 10.0 uM, Hit No;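 further: UNG excision on a quenched double-stranded DNA oligo probe, with APE1 added for strand incision and turnover, read as fluorescence at 594 nm as strands separate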
Uracil-DNA glycosylase (Homo sapiens), sequence (P13051 whole entry): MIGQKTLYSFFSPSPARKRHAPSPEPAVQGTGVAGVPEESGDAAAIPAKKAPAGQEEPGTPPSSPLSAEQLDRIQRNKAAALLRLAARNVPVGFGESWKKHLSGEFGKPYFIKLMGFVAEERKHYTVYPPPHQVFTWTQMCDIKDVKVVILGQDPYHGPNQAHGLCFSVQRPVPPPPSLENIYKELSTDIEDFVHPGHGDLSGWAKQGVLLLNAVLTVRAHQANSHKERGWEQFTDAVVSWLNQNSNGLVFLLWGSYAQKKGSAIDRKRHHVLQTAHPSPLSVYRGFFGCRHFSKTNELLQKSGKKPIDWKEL

SMILES	inhibition [1] [%]	inhibition [2] [%]	inhibition [3] [%]	inhibition [4] [%]	inhibition ([5]; Hit No) [%]	inhibition [6] [%]	inhibition ([7]; Hit No) [%]	inhibition [8] [%]	inhibition [9] [%]	inhibition [10] [%]	inhibition ([7]; Hit Yes) [%]	inhibition ([5]; Hit Yes) [%]
COc1cc(OC)c(NC(=O)Nc2cc(C)on2)cc1Cl	-2.96	-9.71	-8.2	-2.66	3.98	17.9	-6.94	-8.83	-8.88	-3.91	–	–
Cc1nc(-c2ccc(C(F)(F)F)cc2)sc1COc1ccc([C@H](CC(=O)O)c2ccon2)cc1	20.8	3.92	23.2	3.95	2.26	16.6	–	7.09	27	-5.51	41.1	–
NC(=O)NN=Cc1ccc(Oc2ccc(F)cc2)cc1	-2.63	2.76	8.22	9.49	-3.41	0.568	-9.24	-4.59	11.3	-5.79	–	–
Cn1c(C2(NC(=O)c3ccc4c(C5CCCC5)c(-c5ncc(Br)cn5)n(C)c4c3)CCC2)nc2ccc(/C=C/C(=O)O)cc21	69.3	107	68.7	12.4	–	0.685	60.3	25.4	101	13.1	–	40.3
CCOC(=O)N1CCC(c2cc(O)n3nc(C)c(-c4ccc(F)cc4)c3n2)CC1	40.6	38.1	75.7	5.34	2.71	11.3	-3.67	6.03	48.9	-0.428	–	–
COc1cc(Nc2ccc([N+](=O)[O-])cc2C(=O)O)cc2ccccc12	71	44	91.9	3.71	5.25	11.3	33.4	23.2	67.3	10.9	–	–
CC[C@H](C)[C@H](NC(=O)[C@H](Cc1ccc(O)cc1)NC(=O)[C@@H](NC(=O)[C@H](CCCNC(=N)N)NC(=O)[C@@H](N)CC(=O)O)C(C)C)C(=O)N[C@@H](Cc1cnc[nH]1)C(=O)N[C@H](C)C(=O)O (HELM PEPTIDE1{D.R.V.Y.I.H.[dA]}$$$$V2.0)	6.33	-4.39	-8.51	9.79	-1.88	17.1	-9.35	-8.77	1.59	-2.81	–	–
CN(C)C(=O)c1cc2cnc(Nc3ccc(N4CCNCC4)cn3)nc2n1C1CCCC1	24.6	59.5	16.4	3.31	-0.842	-3.4	4.33	21.9	57.4	8.98	–	–
Cc1cc(C)c(N)c(C#Cc2cccc(F)c2)n1	6.71	3.92	4.63	0.982	5.26	-3.21	4.23	6.75	17.2	-6.05	–	–
COc1cc(C(=O)NS(=O)(=O)c2ccccc2C)ccc1Cc1cn(C)c2ccc(NC(=O)OC3CCCC3)cc12	67.2	33.1	50.6	13.9	28.2	29.8	–	24	61.3	7.14	45.1	–
Nc1nc2c(c(N3CCNCC3)n1)CCC1=C2[C@@H]2CCCC[C@@H]2O1	0.963	-2.48	3.48	-3.91	4.51	7.79	-5.22	13.7	6.18	-2.85	–	–
CCCN(CCC)CCc1cccc2c1CC(=O)N2	2.3	-1.21	10.1	7.51	1.01	-4.67	-5.66	-5.12	8.55	-9.36	–	–
O=C1CC[C@@]2(O)[C@H]3Cc4ccc(O)c5c4[C@@]2(CCN3CC2CC2)[C@H]1O5	4.42	4.49	14.6	-9.92	-8.5	-4.39	-3.73	-9.51	27.8	-2.62	–	–
Cc1ccnc(Nc2nc(-c3ccccn3)cs2)c1	9.11	16	13.9	-0.88	9.84	17.1	-1.19	5.18	17.8	-7.33	–	–
O=C(NCC12CC3CC(CC(C3)C1)C2)c1ccccc1Cl	30.1	21.7	21.2	11.9	-6.46	1.39	-1.14	-1.71	10.4	-0.487	–	–
CN1CCC(c2c[nH]c3ccc(O)cc23)CC1	8.69	-0.341	-5.79	-2.51	-2.39	12.9	-0.678	-3.74	22.5	-5.58	–	–
Oc1cc2c(cc1O)CN(C(=S)NCCc1ccc(Cl)cc1)CCC2	39.2	26.6	73.8	12.2	6.53	3.04	-1.56	1.46	46.1	3.52	–	–
Cc1cc(C)cc(C(=O)N(C)[C@H](Cc2ccc(-c3ccccc3)cc2)C(=O)N[C@@H](Cc2c[nH]c3ccccc23)C(=O)O)c1	60.3	4.38	76.9	-1.83	12.5	2.66	16.2	4.62	48.4	6.08	–	–
CC[C@H]1[C@@H](O)[C@@H]2[C@H](CC[C@]3(C)[C@@H]([C@H](C)CCC(=O)O)CC[C@@H]23)[C@@]2(C)CC[C@@H](O)C[C@@H]12	77.2	17.5	24.4	1.53	1.55	1.34	26.2	27.8	67.3	5.49	–	–
O=C(O)CCc1ccc(NCc2cccc(Oc3ccccc3)c2)cc1	13.6	6.47	13.9	-7.7	-9.01	-4.39	-0.368	-4.08	20	-1.29	–	–
